Measured values taken from patent publication US11034661B2, “Substituted N′-hydroxycarbamimidoyl-1,2,5-oxadiazole compounds as indoleamine 2,3-dioxygenase IDO inhibitors” (Merck Sharp & Dohme Corp., priority 2017, dated 2021).

Key:
[1] = molecular target: HIS-tagged IDO1 protein (Homo sapiens (Human), UniProt P14902); assay: IDO1 Enzyme Assay; format: biochemical; conditions: recombinant IDO1 40 nM, tryptophan substrate, fluorescence readout
Procedure: Biological Assays IDO1 Enzyme Assay
(§1) Compounds to be tested were serially diluted in ten 3-fold steps in DMSO starting from 10 mM DMSO stocks. Compound dilutions or DMSO alone were then dispensed from the dilution plate into a Greiner black 384-well assay plate (catalog #781086) using an Echo 555 acoustic liquid handler (Labcyte).
HIS-tagged IDO1 protein was recombinantly expressed in Escherichia coli using ZYP5052 autoinduction media supplemented with 500 μM delta aminolevulinic acid for 48 hours at 16 degrees Celsius. IDO1 protein was purified using Ni^2+-affinity resin and size exclusion chromatography. Purified protein was then diluted in assay buffer (50 mM Tris pH 7.0, 1% glycerol, 20 μM methylene blue, 0.05% Tween-20, 20 mM sodium ascorbate, 100 units/mL catalase to obtain a final IDO1 concentration of 40 nM. IDO1 solution […] or buffer alone […] was dispensed to wells of the assay plate using a BioRAPTR liquid dispenser (Beckman Coulter). Assay plates containing compound and IDO1 enzyme were incubated at room temperature for 30 minutes. Afterwards, 10 μL of 400 μM tryptophan in assay buffer were added to each well of the assay plate using a BioRAPTR liquid dispenser. Plates were incubated at room temperature for 60 minutes and reactions were quenched by addition of 10 μL of 0.5 M methyl isonipecotate in dimethyl sulfoxide. Plates were sealed and incubated at 37 degrees Celsius for 4 hours or 50 degrees Celsius for 2 hours. The plates are allowed to cool and then centrifuged for 1 minute at 1000×g. The resulting fluorescence was measured in an Envision plate reader (Perkin Elmer) with a 400/25 nm excitation filter and an 510/20 nm emission filter.
Potencies were calculated by linear least squares fit to the four parameter logistic IC50 equation.

[2] = molecular target: IDO1 in Hela cells stimulated with IFNγ (Homo sapiens (Human), UniProt P14902); assay: IDO1 Cellular Assay in Hela Cells Stimulated with IFNγ; format: cell-based; conditions: IFNγ 100 ng/mL, about 48 hours, fluorescence readout, read-out: IDO1 HELA Cell Assay, IC50
Chain of IDO1 in Hela cells stimulated with IFNγ (P14902 whole entry): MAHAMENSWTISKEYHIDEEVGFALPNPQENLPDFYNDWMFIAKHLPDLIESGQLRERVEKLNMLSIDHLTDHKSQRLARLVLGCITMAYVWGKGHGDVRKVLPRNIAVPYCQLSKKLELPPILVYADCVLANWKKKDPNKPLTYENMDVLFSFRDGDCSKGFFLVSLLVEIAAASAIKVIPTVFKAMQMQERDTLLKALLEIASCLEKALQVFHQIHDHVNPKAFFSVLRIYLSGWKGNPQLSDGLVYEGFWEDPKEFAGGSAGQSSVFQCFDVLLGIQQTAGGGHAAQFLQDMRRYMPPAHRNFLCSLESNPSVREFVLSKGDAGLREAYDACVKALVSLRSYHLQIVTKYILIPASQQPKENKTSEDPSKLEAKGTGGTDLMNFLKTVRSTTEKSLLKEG
Procedure: IDO1 Cellular Assay in Hela Cells Stimulated with IFNγ
Hela cells were cultured in complete Hela culture medium (90% EMEM, 10% heat-inactivated fetal bovine serum) and expanded to about 1×10^9 cells. The cells were then collected and frozen down at 10×10^6 cells/vial in 1 mL frozen medium (90% complete Hela culture medium, 10% DMSO)
as §1, with “stocks in Echo low volume plate(s).” for “stocks.”, “plate(s)” for “plate”, “into” for “into a”, “#781086, 50 nL/well)” for “#781086)”, “550” for “555”
Frozen Hela cells were thawed and transferred into Hela assay medium (99% complete Hela culture medium, 1% Pen/Strep) with 20 mL medium/vial of cells. The cells were spun down at 250 g in a table top centrifuge for 5 min and suspended in same volume of Hela assay medium. The cells were then counted and adjusted to a density of 2×10^5 cells/ml in Hela assay medium. Sterile L-tryptophan were added to the cells with final concentration of 300 uM L-tryptophan. A small aliquot (2 mL/plate) of Hela cells were set aside and were not treated with IFNγ, to serve as the Max-E control. The rest of Hela cells were added with sterile IFNγ (Cat #285-IF, R & D systems) with a final concentration of 100 ng/mL.
Hela cells with and without IFNγ were dispensed to the respective wells of 384-well assay plates containing the compounds. The plates were incubated for about 48 hours at a 37° C., 5% CO2 incubator. Afterwards, 12 μL of 0.5 M methyl isonipecotate in dimethyl sulfoxide were added into each well and the plates were sealed and incubated at 37° C. without CO2 overnight. The plates were centrifuged for 1 min at 200×g. The resulting fluorescence was measured in a Spectramax plate reader (Molecular Devices) with a 400 nm excitation filter and a 510 nm emission filter.
The fluorescence intensity of each well was corrected for the background observed in wells with non-IFNγ-treated cells and was expressed as a fraction of the intensity observed in wells of IFNγ-treated cells and DMSO only. Potencies were calculated by linear least squares fit to the four parameter logistic IC50 equation.

Chain of HIS-tagged IDO1 protein (P14902 whole entry): as above

Row | IC50 [1] [nM] | IC50 [2] [nM] | Compound
1 | 1200 | 2000 | O=C(CO)N1CC[C@H](Oc2nonc2/C(=N/O)N[C@H]2Cc3ccc(F)cc32)C1 [Example 25, N-[(7S)-4-fluorobicyclo[4.2.0]octa-1,3,5-trien-7-yl]-N′-hydroxy-4-{[(3S)-1-(hydroxyacetyl)pyrrolidin-3-yl]oxy}-1,2,5-oxadiazole-3-carboximidamide]
2 | 308 | 340 | NS(=O)(=O)N1CC[C@H](Oc2nonc2/C(=N/O)N[C@H]2Cc3ccc(F)cc32)C1 [Example 32, N-[(7S)-4-fluorobicyclo[4.2.0]octa-1,3,5-trien-7-yl]-N′-hydroxy-4-{[(3S)-1-sulfamoylpyrrolidin-3-yl]oxy}-1,2,5-oxadiazole-3-carboximidamide]
3 | 747 | 750 | NS(=O)(=O)N1CC[C@@H](Oc2nonc2/C(=N/O)N[C@H]2Cc3ccc(F)cc32)C1 [Example 31, N-[(7S)-4-fluorobicyclo[4.2.0]octa-1,3,5-trien-7-yl]-N′-hydroxy-4-{[(3R)-1-sulfamoylpyrrolidin-3-yl]oxy}-1,2,5-oxadiazole-3-carboximidamide]
4 | 1490 | 1340 | O=C(CO)N1CC[C@H]1COc1nonc1/C(=N/O)N[C@H]1Cc2ccc(F)cc21 [Example 54, N-[(7S)-4-fluorobicyclo[4.2.0]octa-1,3,5-trien-7-yl]-N′-hydroxy-4-{[(2S)-1-(hydroxyacetyl)azetidin-2-yl]methoxy}-1,2,5-oxadiazole-3-carboximidamide]
5 | 1670 | 1930 | CC(Oc1nonc1/C(=N/O)NC1Cc2ccc(F)cc21)C(=O)NCCO (stereo not shown) [Example 23, 2-({4-[N-(4-fluorobicyclo[4.2.0]octa-1,3,5-trien-7-yl)-N′-hydroxycarbamimidoyl]-1,2,5-oxadiazol-3-yl}oxy)-N-(2-hydroxyethyl)propanamide]
6 | 1810 | 1290 | CC(=O)N[C@@H](CO)COc1nonc1/C(=N/O)N[C@H]1Cc2ccc(F)cc21 [Example 52, N-{(2S)-1-[(4-{N-[(7S)-4-fluorobicyclo[4.2.0]octa-1,3,5-trien-7-yl]-N′-hydroxycarbamimidoyl}-1,2,5-oxadiazol-3-yl)oxy]-3-hydroxypropan-2-yl}acetamide]
7 | 24 | 44 | NS(=O)(=O)N1CC(Oc2nonc2/C(=N/O)N[C@H]2Cc3ccc(F)cc32)C1 [Example 62, (S,Z)-N-(4-fluorobicyclo[4.2.0]octa-1(6),2,4-trien-7-yl)-N′-hydroxy-4-((1-sulfamoylazetidin-3-yl)oxy)-1,2,5-oxadiazole-3-carboximidamide]
8 | 364 | 298 | O=C(CO)N1CC(COc2nonc2/C(=N/O)N[C@H]2Cc3ccc(F)cc32)C1 [Example 59, N-[(7S)-4-fluorobicyclo[4.2.0]octa-1,3,5-trien-7-yl]-N′-hydroxy-4-{[1-(hydroxyacetyl)azetidin-3-yl]methoxy}-1,2,5-oxadiazole-3-carboximidamide]
9 | 100 | 335 | C[C@@H](O)CNC(=O)COc1nonc1/C(=N/O)N[C@H]1Cc2ccc(F)cc21 [Example 10, 2-[(4-{N-[(7S)-4-fluorobicyclo[4.2.0]octa-1,3,5-trien-7-yl]-N′-hydroxycarbamimidoyl}-1,2,5-oxadiazol-3-yl)oxy]-N-[(2R)-2-hydroxypropyl]acetamide]
10 | 516 | 822 | O=C(CO)N1CCC(Oc2nonc2/C(=N/O)N[C@H]2Cc3ccc(F)cc32)CC1 [Example 50, N-[(7S)-4-fluorobicyclo[4.2.0]octa-1,3,5-trien-7-yl]-N′-hydroxy-4-{[1-(hydroxyacetyl)piperidin-4-yl]oxy}-1,2,5-oxadiazole-3-carboximidamide]
11 | 10700 | 7310 | NS(=O)(=O)N1CCC(Oc2nonc2/C(=N/O)N[C@H]2Cc3ccc(F)cc32)CC1 [Example 49, N-[(7S)-4-fluorobicyclo[4.2.0]octa-1,3,5-trien-7-yl]-N′-hydroxy-4-[(1-sulfamoylpiperidin-4-yl)oxy]-1,2,5-oxadiazole-3-carboximidamide]
12 | 89 | 99 | C[C@@H](O)C(=O)N1CC(Oc2nonc2/C(=N/O)N[C@H]2Cc3ccc(F)cc32)C1 [Example 61, N-((S)-4-fluorobicyclo[4.2.0]octa-1(6),2,4-trien-7-yl)-N′-hydroxy-4-((1-((R)-2-hydroxypropanoyl)azetidin-3-yl)oxy)-1,2,5-oxadiazole-3-carboximidamide]
13 | 302 | 2360 | O=C(NCCOc1nonc1/C(=N/O)N[C@H]1Cc2ccc(F)cc21)[C@H](O)CO [Example 20, (2R)-N-{2-[(4-{N-[(7S)-4-fluorobicyclo[4.2.0]octa-1,3,5-trien-7-yl]-N′-hydroxycarbamimidoyl}-1,2,5-oxadiazol-3-yl)oxy]ethyl}-2,3-dihydroxypropanamide]
14 | 985 | 770 | CC(C)(O)CNC(=O)COc1nonc1/C(=N/O)NC1Cc2ccc(F)cc21 (stereo not shown) [Example 14, 2-({4-[N-(4-fluorobicyclo[4.2.0]octa-1,3,5-trien-7-yl)-N′-hydroxycarbamimidoyl]-1,2,5-oxadiazol-3-yl}oxy)-N-(2-hydroxy-2-methylpropyl)acetamide]
15 | 214 | 284 | O=C(NCCOc1nonc1/C(=N/O)N[C@H]1Cc2ccc(F)cc21)[C@@H](O)CO [Example 26, (2S)-N-{2-[(4-{N-[(7S)-4-fluorobicyclo[4.2.0]octa-1,3,5-trien-7-yl]-N′-hydroxycarbamimidoyl}-1,2,5-oxadiazol-3-yl)oxy]ethyl}-2,3-dihydroxypropanamide]
16 | 216 | 328 | CC(=O)NC[C@H](O)COc1nonc1/C(=N/O)N[C@H]1Cc2ccc(F)cc21 [Example 53, N-{(2S)-3-[(4-{N-[(7S)-4-fluorobicyclo[4.2.0]octa-1,3,5-trien-7-yl]-N′-hydroxycarbamimidoyl}-1,2,5-oxadiazol-3-yl)oxy]-2-hydroxypropyl}acetamide]
17 | 110 | 416 | C[C@H](CO)NC(=O)COc1nonc1/C(=N/O)N[C@H]1Cc2ccc(F)cc21 [Example 8, 2-[(4-{N-[(7S)-4-fluorobicyclo[4.2.0]octa-1,3,5-trien-7-yl]-N′-hydroxycarbamimidoyl}-1,2,5-oxadiazol-3-yl)oxy]-N-[(2R)-1-hydroxypropan-2-yl]acetamide]
18 | 224 | 1780 | O/N=C(\N[C@H]1Cc2ccc(F)cc21)c1nonc1OC1CNC1 [Example 21, 4-[(azetidin-3-yl)oxy]-N-[(7S)-4-fluorobicyclo[4.2.0]octa-1,3,5-trien-7-yl]-N′-hydroxy-1,2,5-oxadiazole-3-carboximidamide]
19 | 264 | 308 | O=C(NCCOc1nonc1/C(=N/O)N[C@H]1Cc2ccc(F)cc21)c1nc[nH]n1 [Example 22, N-{2-[(4-{N-[(7S)-4-fluorobicyclo[4.2.0]octa-1,3,5-trien-7-yl]-N′-hydroxycarbamimidoyl}-1,2,5-oxadiazol-3-yl)oxy]ethyl}-1H-1,2,4-triazole-3-carboxamide]
20 | 7790 | 2850 | CC(C)(Oc1nonc1/C(=N/O)NC1Cc2ccc(F)cc21)C(=O)NCCO (stereo not shown) [Example 19, 2-({4-[N-(4-fluorobicyclo[4.2.0]octa-1,3,5-trien-7-yl)-N′-hydroxycarbamimidoyl]-1,2,5-oxadiazol-3-yl}oxy)-N-(2-hydroxyethyl)-2-methylpropanamide]
